ChEMBL document CHEMBL5390243, “Catecholamine Derivatives: Natural Occurrence, Structural Diversity, and Biological Activity” (J Nat Prod, 2023)
pIC50, pKi: −log10 of the molar value.

Tests used:
[1] = Cytotoxicity against rat NRK-52E cells assessed as inhibition of cell growth incubated for 24 hrs by CCK-8 assay; assay type: toxicity, cell-based
[2] = target: Delta-type opioid receptor (Homo sapiens, UniProt P41143); assay: Binding affinity to DOR (unknown origin) assessed as inhibition constant
Chain of Delta-type opioid receptor (P41143 whole entry): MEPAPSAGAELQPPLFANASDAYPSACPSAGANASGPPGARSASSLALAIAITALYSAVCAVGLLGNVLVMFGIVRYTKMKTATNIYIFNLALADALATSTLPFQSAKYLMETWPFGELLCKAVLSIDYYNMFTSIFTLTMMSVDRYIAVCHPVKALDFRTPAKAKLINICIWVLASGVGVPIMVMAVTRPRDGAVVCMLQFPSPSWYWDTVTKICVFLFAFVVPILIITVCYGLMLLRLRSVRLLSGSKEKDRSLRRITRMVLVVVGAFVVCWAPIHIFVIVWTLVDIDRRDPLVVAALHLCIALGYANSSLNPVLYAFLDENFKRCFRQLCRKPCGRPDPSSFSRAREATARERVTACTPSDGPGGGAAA

[3] = system: Bacillus subtilis; assay: Antibacterial activity against Bacillus subtilis ATCC 6051 assessed as reduction in bacterial growth incubated for 18 to 24 hrs by broth microdilution method; assay type: functional, organism-based
[4] = target: Glycogen synthase kinase-3 beta (Homo sapiens, UniProt P49841); assay: Inhibition of N-terminal His6-tagged human recombinant GSK3beta expressed in baculovirus-infected Sf21 cells incubated for 60 mins in presence of ATP by ADP-glo analysis
Chain of Glycogen synthase kinase-3 beta (P49841 whole entry): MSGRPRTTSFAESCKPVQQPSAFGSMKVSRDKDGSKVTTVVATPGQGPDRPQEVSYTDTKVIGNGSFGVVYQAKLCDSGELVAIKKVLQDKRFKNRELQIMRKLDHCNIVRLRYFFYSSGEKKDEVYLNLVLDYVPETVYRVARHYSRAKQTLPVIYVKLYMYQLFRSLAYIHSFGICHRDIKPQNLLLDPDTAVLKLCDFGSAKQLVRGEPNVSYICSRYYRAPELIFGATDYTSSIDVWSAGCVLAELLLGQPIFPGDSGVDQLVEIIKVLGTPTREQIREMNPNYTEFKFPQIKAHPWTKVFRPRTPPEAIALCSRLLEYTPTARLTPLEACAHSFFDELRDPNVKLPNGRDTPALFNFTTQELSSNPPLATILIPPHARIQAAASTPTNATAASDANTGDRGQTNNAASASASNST

[5] = system: Bacillus subtilis; assay: Antibacterial activity against Bacillus subtilis ATCC 6633 assessed as reduction in bacterial growth incubated for 18 to 24 hrs by broth microdilution method; assay type: functional, organism-based
[6] = target: Cyclin-dependent kinase 5/CDK5 activator 1 (Homo sapiens, UniProt Q00535); assay: Inhibition of N-terminal full length human recombinant CDK5/p25 expressed in baculovirus-infected Sf21 cells incubated for 60 mins in presence of ATP by kinase-glo luminescent assay
Chain of Cyclin-dependent kinase 5/CDK5 activator 1 (Q00535 whole entry, the tested form may be a part, canonical isoform): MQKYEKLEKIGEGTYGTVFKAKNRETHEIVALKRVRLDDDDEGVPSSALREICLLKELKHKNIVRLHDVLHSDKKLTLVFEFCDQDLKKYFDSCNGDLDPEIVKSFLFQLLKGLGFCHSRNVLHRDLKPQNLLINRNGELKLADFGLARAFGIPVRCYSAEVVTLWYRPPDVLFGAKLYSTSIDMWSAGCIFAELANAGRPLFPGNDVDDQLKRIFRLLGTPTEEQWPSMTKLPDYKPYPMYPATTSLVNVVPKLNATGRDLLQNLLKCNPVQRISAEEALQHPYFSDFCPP
Chain of Cyclin-dependent kinase 5/CDK5 activator 1 (Q15078 whole entry, further chain, the tested form may be a part, canonical isoform): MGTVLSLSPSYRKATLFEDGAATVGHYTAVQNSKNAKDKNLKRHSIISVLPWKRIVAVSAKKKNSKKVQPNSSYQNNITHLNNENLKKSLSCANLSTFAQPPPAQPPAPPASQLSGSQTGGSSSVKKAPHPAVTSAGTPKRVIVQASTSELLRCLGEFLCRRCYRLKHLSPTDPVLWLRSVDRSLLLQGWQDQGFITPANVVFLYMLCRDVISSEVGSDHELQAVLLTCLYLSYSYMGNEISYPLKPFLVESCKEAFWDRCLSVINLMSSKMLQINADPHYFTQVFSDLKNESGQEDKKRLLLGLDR

[7] = target: Casein kinase I isoform delta (Homo sapiens, UniProt P48730); assay: Inhibition of N-terminal GST-tagged human recombinant CK1delta (1 to 294 residues) expressed in Escherichia coli incubated for 60 mins in presence of ATP by Kinase-glo luminescent assay
Chain of Casein kinase I isoform delta (P48730 whole entry, the tested form may be a part, canonical isoform): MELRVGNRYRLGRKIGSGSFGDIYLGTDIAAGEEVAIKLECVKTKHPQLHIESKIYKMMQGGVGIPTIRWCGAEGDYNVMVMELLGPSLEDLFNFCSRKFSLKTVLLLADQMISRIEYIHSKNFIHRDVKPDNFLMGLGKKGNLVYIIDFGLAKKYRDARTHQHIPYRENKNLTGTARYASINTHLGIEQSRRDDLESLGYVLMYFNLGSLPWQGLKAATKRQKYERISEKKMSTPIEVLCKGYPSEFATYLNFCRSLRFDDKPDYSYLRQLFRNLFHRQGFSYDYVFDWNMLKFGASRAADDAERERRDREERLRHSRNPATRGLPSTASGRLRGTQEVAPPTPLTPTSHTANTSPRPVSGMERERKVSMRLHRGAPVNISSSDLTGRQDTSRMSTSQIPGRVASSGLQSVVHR

Compound `CC(=O)NCCc1ccc2c(c1)O[C@]1(NC(C)=O)[C@H](O2)c2cc(O)c(O)cc2[C@@H](c2ccc(O)c(O)c2)[C@@H]1NC(C)=O` has an IC50 at 24 h [1] of 30 µM.

In the case of `N=C(N)NCCCC1=NCCc2cc(O)c(O)cc21`, the pKi [2] was 6.31.

With `O=C(O)c1[nH]c2c(=O)oc3cc(O)c(O)cc3c2c1-c1ccc(O)c(O)c1` the pIC50 [3] was 5.52, the pIC50 [4] was 5.80 and the pIC50 [5] was 5.42. The pIC50 [6] was 4.96 and the pIC50 [7] was 5.64.
